pIC50: −log10 of the molar value.
Target: T1, Purified Lck (Upstate) (Homo sapiens, UniProt P06239)
T1 construct: purchased Upstate
Test: Assay for Lck Activity
Assay type: biochemical
Conditions: Src substrate peptide-coated plate ELISA, 0.05 mM ATP, 30° C. for 60 minutes, anti-phosphotyrosine HRP detection
Description: The Src substrate peptide (Upstate) was coated onto 96-well Maxisorp plates (Nunc). Plates were sealed and incubated at 4° C., for 16 hours, washed three times with TBST (20 mM Tris-HCl pH 7.5, 150 mM NaCl and 0.1% Tween-20). The plates were blocked with 0.1% BSA and washed three times with TBST. Purified Lck (Upstate) was incubated in 100 mM Tris-HCl pH 7.5, 125 mM MgCl2, 25 mM MnCl2, 2 mM EGTA, 0.25 mM Sodium Vanadate, 2 mM DTT, 0.05 mM ATP with or without inhibitors at 30° C. for 60 minutes and washed with TBST three times. For quantification of phosphorylated tyrosines, plates were incubated with anti-phosphotyrosine, HRP conjugate (4G10, Upstate) for 1 hour at ambient temperature and washed three times with TBST. Detection was carried out using a color reagent, TMB (KPL). Ten minute after TMB addition the OD at 450 nm was measured.

T1 sequence (P06239 whole entry, species assumed): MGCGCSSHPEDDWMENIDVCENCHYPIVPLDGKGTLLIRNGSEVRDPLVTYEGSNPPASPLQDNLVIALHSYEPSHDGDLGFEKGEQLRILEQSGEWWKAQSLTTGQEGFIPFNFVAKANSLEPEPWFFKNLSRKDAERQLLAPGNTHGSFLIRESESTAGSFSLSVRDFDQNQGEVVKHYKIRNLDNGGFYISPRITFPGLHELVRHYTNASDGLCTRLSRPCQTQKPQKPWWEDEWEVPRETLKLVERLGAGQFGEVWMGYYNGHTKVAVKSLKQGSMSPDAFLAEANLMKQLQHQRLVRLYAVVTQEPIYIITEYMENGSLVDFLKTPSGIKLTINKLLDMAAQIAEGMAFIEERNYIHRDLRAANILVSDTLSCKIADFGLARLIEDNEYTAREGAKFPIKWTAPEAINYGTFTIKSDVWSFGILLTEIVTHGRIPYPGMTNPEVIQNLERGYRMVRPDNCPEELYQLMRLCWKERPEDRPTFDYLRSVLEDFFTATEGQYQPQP

Structure (SMILES)	pIC50
c1cc(-c2cnc3ccc(NC4CCOCC4)nn23)ccn1 [Example 16, 3-(4-pyridinyl)-N-(tetrahydro-2H-pyran-4-yl)imidazo[1,2-b]pyridazin-6-amine]	6.34
c1cc(-c2cnc3ccc(NC4CCCCC4)nn23)ccn1 [Example 44, N-Cyclohexyl-3-(4-pyridinyl)imidazo[1,2-b]pyridazin-6-amine]	6.42
c1ccc(Nc2ccc3ncc(-c4ccncc4)n3n2)cc1 [Example 47, N-Phenyl-3-(4-pyridinyl)imidazo[1,2-b]pyridazin-6-amine]	6.46
c1ccc(CNc2ccc3ncc(-c4ccncc4)n3n2)cc1 [Example 102, N-Benzyl-3-(4-pyridinyl)imidazo[1,2-b]pyridazin-6-amine]	6.51
c1cc(Nc2ccc3ncc(-c4ccncc4)n3n2)ccn1 [Example 106, N,3-Di-4-pyridinylimidazo[1,2-b]pyridazin-6-amine]	6.39
Oc1c(Cl)cc(-c2cnc3ccc(N[C@H]4CC[C@H](O)CC4)nn23)cc1Cl [Example 127, 2,6-dichloro-4-{6-[(trans-4-hydroxycyclohexyl)amino]imidazo[1,2-b]pyridazin-3-yl}phenol]	7.09
O[C@H]1CC[C@H](Nc2ccc3ncc(-c4ccnc(F)c4)n3n2)CC1 [Example 153, trans-4-{[3-(2-Fluoro-4-pyridinyl)imidazo[1,2-b]pyridazin-6-yl]amino}cyclohexanol]	7.01
c1cc(-c2cnc3ccc(NC45CC6CC(CC(C6)C4)C5)nn23)ccn1 [Example 249, N-1-Adamantyl-3-(4-pyridinyl)imidazo[1,2-b]pyridazin-6-amine]	6.49

From US20100216798A1, “FUSED HETEROCYCLES AS LCK INHIBITORS” (ASTELLAS PHARMA INC, priority 2005, published 2010)
